Experimental data taken from patent US8470814B2, “Diazepinedione derivative” (Nippon Chemiphar Co., Ltd., priority 2009, dated 2013).
Where a name gives a salt, the structure may show the parent alone.

Target: T1, human P2X4 receptors (Homo sapiens, UniProt Q99571)
T1 construct: expressed in transfected cells
T1 sequence (Q99571 1-388): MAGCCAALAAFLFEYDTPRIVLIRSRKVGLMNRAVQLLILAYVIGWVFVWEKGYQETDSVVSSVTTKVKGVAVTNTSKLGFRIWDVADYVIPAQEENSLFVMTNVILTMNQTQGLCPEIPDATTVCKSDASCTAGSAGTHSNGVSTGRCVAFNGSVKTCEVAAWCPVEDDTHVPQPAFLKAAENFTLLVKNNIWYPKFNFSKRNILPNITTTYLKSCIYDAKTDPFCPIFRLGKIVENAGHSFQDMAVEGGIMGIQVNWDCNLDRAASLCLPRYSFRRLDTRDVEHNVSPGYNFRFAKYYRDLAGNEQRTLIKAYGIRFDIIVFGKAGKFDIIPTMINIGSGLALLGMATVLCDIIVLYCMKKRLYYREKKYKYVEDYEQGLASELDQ
Assay: calcium influx assay (Fura-2, ATP-induced Ca2+ response) for P2X4 receptor antagonism
Assay type: cell-based
Details: 1321N1 cells stably expressing human P2X4 receptors; 1 μM ATP; compound treated 15 min before ATP; fluorescence ratio F340/F380
Description: (§1) 1321N1 cells stably expressing human P2X4 receptors were adopted for calcium influx assay. P2X4/1321N1 cells were plated in 96-well assay plate and cultured 24 hours in an atmosphere of 5% CO2 at 37° C. Fura-2 AM calcium indicator dissolved in an extracellular solution for calcium imaging was loaded onto cells for 45 minutes at room temperature. […] The cells were alternatively illuminated with two excitations wavelengths (340 nm and 380 nm) via xenon lamp and the emitted fluorescence was measured at 510 nm. The fluorescence changes after the treatment of 1 μM ATP were monitored and determined the fluorescence ratio (F340/F380) as the index of intracellular calcium change. Tested compounds were treated to cells 15 min before the addition of ATP and the inhibition activities of compounds were calculated by comparing the Ca^2+ response with control in the absence of tested compound.
P2X4 receptor antagonism of the compound of the present invention was measured as described below.
as §1, with “change.” for “change. Tested compounds were treated to cells 15 min before the addition of ATP and the inhibition activities of compounds were calculated by comparing the Ca^2+ response with control in the absence of tested compound.”

| Compound | IC50 |
| --- | --- |
| O=C1CC(=O)N(c2ccc(-c3nnn[nH]3)cc2)c2ccc3ccccc3c2N1 [Example 4, 5-[4-(1H-Tetrazol-5-yl)phenyl]-1H-naphtho[1,2-b][1,4]diazepin-2,4(3H,5H)-dione sodium salt] | 0.75 µM |
| O=C1CC(=O)N(c2cccc(-c3ncco3)c2)c2ccc3ccccc3c2N1 [Example 15, 5-[3-(Oxazol-2-yl)phenyl]-1H-naphtho[1,2-b][1,4]diazepin-2,4(3H,5H)-dione] | 4.2 µM |
| O=C1CC(=O)N(c2cccc(-c3cn[nH]c3)c2)c2ccc3ccccc3c2N1 [Example 16, 5-[3-(1H-Pyrazol-4-yl)phenyl]-1H-naphtho[1,2-b][1,4]diazepin-2,4(3H,5H)-dione] | 3.6 µM |
